{"source": "patent US20230329282A1", "about": "“Application of 1-Deoxynojirimycin in Feed for Improving Nutritional Value and Sensory Effect of Rabbit Meat Products” (priority 2023, published 2023)", "key": {"[1]": {"tested_on": "New Zealand white rabbits", "assay": "Antioxidant indexes of rabbit meat (T-AOC, SOD, GSH-Px, MDA kits)", "assay_type": "in vivo", "details": "28 d, muscle homogenate", "from_the_text": "(§1) The single-factor completely randomized test design is adopted. 36 45-day-old healthy New Zealand white rabbits (male) with the average weight of (1.05±0.04) kg are selected and randomly divided into 3 groups, and each group has 12 replicates with 1 rabbit per replicate. A control group is fed with a basal diet, an L-DNJ group is fed with the basal diet+0.14 g/kg DNJ, and an H-DNJ group is fed with the basal diet+0.28 g/kg DNJ. The diet is uniformly mixed to be prepared into cylindrical particles with the diameter of 6 mm and the length of 1 cm. The preliminary trial period is 14 d, and the trial period is 28 d.\nAbout 5 g of muscular tissue is rinsed in 0-4° C. precooled normal saline to remove blood, dried with filter paper, and then weighed. The muscle tissue and 0-4° C. precooled homogenate buffer are thoroughly mixed and homogenized in an ice water bath at a […] to prepare muscle tissue homogenate with the mass concentration of 10%. The homogenate buffer contains 0.01 mol/L sucrose, 0.14 mol/L NaCl, 0.01 mol/L Tris-HCl and 0.0001 mol/L Na2EDTA, with the pH value of 7.4. The total protein content and the malondialdehyde (MDA) content of the tissue suspension is detected with a kit by a colorimetric method. Before the activities of total antioxidant capacity (T-AOC) enzyme, superoxide dismutase (SOD) and glutathione peroxidase (GSH-Px) are measured, the homogenate suspension is centrifuged at 3000 r/min for 15 min, the superneant is taken, and the activities of the enzymes are measured with relevant kits. All the kits are from Nanjing Jiancheng Bioengineering Institute, and the operation method is shown in the instructions of kits."}, "[2]": {"tested_on": "New Zealand white rabbits", "details": "cited from earlier work"}, "[3]": {"tested_on": "New Zealand white rabbits", "assay": "Apparent digestibility of nutrients, total collection method", "assay_type": "in vivo", "details": "feces collected 3 d from day 14", "from_the_text": "as §1\nOn the 14th day of the test, 8 experimental rabbits with similar weight are randomly selected from each group and transferred to metabolism cages for digestion and metabolism tests. The digestion and metabolism tests are conducted by the total collection method. All fecal samples of the experimental rabbits are collected for 3 consecutive days, and the contents of nutrients in the diet and fecal samples are measured according to the method in the book written by Zhang Liying. The calculation formula is: apparent digestibility of a nutrient (%)=(content of the nutrient in diet−content of the nutrient in feces)/content of the nutrient in diet×100."}, "[4]": {"tested_on": "New Zealand white rabbits", "assay": "Nutritional ingredients of muscle (moisture, crude protein, ether extract)", "assay_type": "in vivo", "details": "28 d", "from_the_text": "as §1\nThe rabbits are deprived of food (but not water) on the night of the end of the experiment, and after weighing in the next morning, 8 rabbits with similar weight are selected from each group and slaughtered. The longissimus dorsi muscles of the rabbits are collected, the pH values of the front, middle and back parts of the longissimus dorsi muscle are measured with a pH meter (Bante221, Shanghai Bante Instrument Co., Ltd.) having the function of automatic temperature compensation and then measured again after standing at room temperature for 24 h, and the pH decreased values of the muscle within 24 h are calculated. The pH value is the average value of the three readings. The meat color (L*, α*, b*) is measured with a TC-PIIG automatic color difference meter (Beijing Aoyike Photoelectric Instrument Co., Ltd.) on the muscle surface. The detection light source is D65 according to CIE laboratory standards, and the measurement area is 8 mm in diameter. The average value is obtained by making three measurements at each detection point.\nThe contents of moisture, crude protein and ether extract in the muscle are measured according to the method proposed by Zhang Liying (Zhang Liying. Feed analysis and feed quality inspection technology [M]. 4th Ed. Beijing: China Agricultural University Press, 2016)."}, "[5]": {"tested_on": "New Zealand white rabbits", "assay": "Growth performance (ADFI, ADG, FCR)", "assay_type": "in vivo", "details": "28 d trial", "from_the_text": "as §1\nIn the morning of the first day of the trial period and the second day after the trial, the experimental rabbits are weighed once on an empty stomach, and the average daily gain (ADG) of each rabbit is calculated. Leftovers are collected and weighed before feeding, and the average daily feed intake (ADFI) of each rabbit is calculated. The ratio of the average daily feed intake to the average daily gain is the feed conversion rate (FCR). The calculation formula is as follows: • ADG=(final weight−initial weight)/test days; • ADFI=total feed intake/test days; • FCR=ADFFADG."}, "[6]": {"details": "H-DNJ: basal diet+0.28 g/kg DNJ"}, "[7]": {"details": "L-DNJ: basal diet+0.14 g/kg DNJ"}, "[8]": {"details": "Zhong Jingbo et al. 2021, higher additive amount"}, "[9]": {"details": "high-concentration mulberry leaf DNJ (0.4 g/kg and 2 g/kg), Zhong Jingbo et al., Xie Hui et al."}}, "note": "Marks after values point to notes of the source that are not given here.", "data": [{"smiles": "OC[C@H]1NC[C@H](O)[C@@H](O)[C@@H]1O", "note": "[DNJ, 1-deoxynojirimycin]", "values": [{"measurement": "GSH-Px of rabbit meat", "setting": "[1]; [6]", "value": "7.88ª U/mg prot"}, {"measurement": "MDA of rabbit meat", "setting": "[1]; [6]", "value": 0.45, "unit": "nmol/mg prot"}, {"measurement": "SOD of rabbit meat", "setting": "[1]; [6]", "value": 25.91, "unit": "U/mg prot"}, {"measurement": "T-AOC of rabbit meat", "setting": "[1]; [6]", "value": "0.82ª U/mg prot"}, {"measurement": "GSH-Px of rabbit meat", "setting": "[1]; [7]", "value": "6.36^b U/mg prot"}, {"measurement": "MDA of rabbit meat", "setting": "[1]; [7]", "value": 0.41, "unit": "nmol/mg prot"}, {"measurement": "SOD of rabbit meat", "setting": "[1]; [7]", "value": 25.01, "unit": "U/mg prot"}, {"measurement": "T-AOC of rabbit meat", "setting": "[1]; [7]", "value": "0.78^ab U/mg prot"}, {"measurement": "brightness L* of rabbit meat", "setting": "[2]; [8]", "value": "increase"}, {"measurement": "redness α* of rabbit meat", "setting": "[2]; [8]", "value": "no effect"}, {"measurement": "activity of the duodenal amylase", "setting": "[2]; [9]", "value": "decrease"}, {"measurement": "digestibility of dry matter and ether extract in diet", "setting": "[2]; [9]", "value": "decrease"}, {"measurement": "weight gain of animals", "setting": "[2]; [9]", "value": "slow weight gain"}, {"measurement": "Apparent digestibility of Acid detergent fiber (ADF)", "setting": "[3]; [6]", "value": 14.88, "unit": "%"}, {"measurement": "Apparent digestibility of Crude ash", "setting": "[3]; [6]", "value": 42.23, "unit": "%"}, {"measurement": "Apparent digestibility of Crude fiber (CF)", "setting": "[3]; [6]", "value": 14.56, "unit": "%"}, {"measurement": "Apparent digestibility of Crude protein (CP)", "setting": "[3]; [6]", "value": "76.25ª %"}, {"measurement": "Apparent digestibility of Dry matter (DM)", "setting": "[3]; [6]", "value": "60.79^b %"}, {"measurement": "Apparent digestibility of Ether extract (EE)", "setting": "[3]; [6]", "value": "78.35^b %"}, {"measurement": "Apparent digestibility of Neutral detergent fiber", "setting": "[3]; [6]", "value": 20.68, "unit": "%"}, {"measurement": "Apparent digestibility of Acid detergent fiber (ADF)", "setting": "[3]; [7]", "value": 12.34, "unit": "%"}, {"measurement": "Apparent digestibility of Crude ash", "setting": "[3]; [7]", "value": 43.44, "unit": "%"}, {"measurement": "Apparent digestibility of Crude fiber (CF)", "setting": "[3]; [7]", "value": 13.54, "unit": "%"}, {"measurement": "Apparent digestibility of Crude protein (CP)", "setting": "[3]; [7]", "value": "75.17^ab %"}, {"measurement": "Apparent digestibility of Dry matter (DM)", "setting": "[3]; [7]", "value": "61.35^ab %"}, {"measurement": "Apparent digestibility of Ether extract (EE)", "setting": "[3]; [7]", "value": "79.84^ab %"}, {"measurement": "Apparent digestibility of Neutral detergent fiber", "setting": "[3]; [7]", "value": 21.02, "unit": "%"}, {"measurement": "Nutritional ingredient of muscle: Crude protein (CP)", "setting": "[4]; [6]", "value": 22.18}, {"measurement": "Nutritional ingredient of muscle: Ether extract (EE)", "setting": "[4]; [6]", "value": "0.60^c"}, {"measurement": "Nutritional ingredient of muscle: Moisture", "setting": "[4]; [6]", "value": 75.20}, {"measurement": "Nutritional ingredient of muscle: Crude protein (CP)", "setting": "[4]; [7]", "value": 22.09}, {"measurement": "Nutritional ingredient of muscle: Ether extract (EE)", "setting": "[4]; [7]", "value": "2.50^b"}, {"measurement": "Nutritional ingredient of muscle: Moisture", "setting": "[4]; [7]", "value": 75.93}, {"measurement": "Average daily feed intake (ADFI)", "setting": "[5]; [6]", "value": 140.46}, {"measurement": "Average daily gain (ADG)", "setting": "[5]; [6]", "value": 32.66, "unit": "g/day"}, {"measurement": "Feed conversion rate (FCR)", "setting": "[5]; [6]", "value": 0.24, "unit": "g/g"}, {"measurement": "Average daily feed intake (ADFI)", "setting": "[5]; [7]", "value": 145.33}, {"measurement": "Average daily gain (ADG)", "setting": "[5]; [7]", "value": 36.18, "unit": "g/day"}, {"measurement": "Feed conversion rate (FCR)", "setting": "[5]; [7]", "value": 0.25, "unit": "g/g"}]}]}
